Source: paper PMC9551036, “A selective and orally bioavailable VHL-recruiting PROTAC achieves SMARCA2 degradation in vivo” (Nature Communications, 2022)
Where “and” joins values, the source holds several entries; their conditions need not be identical. Equal values may be shown once. Read-outs that look alike come from different tables or passages of the source.

Key:
[1] = target: T1, SMARCA4 (Homo sapiens, UniProt P51532); assay: Imaging-based SMARCA4 protein assay in RKO cells; type: cell-based; design: endogenous in cells; host or cells: RKO, HCT116, LU99, HCC-364, HCT-15, HCC4006, SK-N-AS; details: individual replicates
T1 sequence (P51532 whole entry): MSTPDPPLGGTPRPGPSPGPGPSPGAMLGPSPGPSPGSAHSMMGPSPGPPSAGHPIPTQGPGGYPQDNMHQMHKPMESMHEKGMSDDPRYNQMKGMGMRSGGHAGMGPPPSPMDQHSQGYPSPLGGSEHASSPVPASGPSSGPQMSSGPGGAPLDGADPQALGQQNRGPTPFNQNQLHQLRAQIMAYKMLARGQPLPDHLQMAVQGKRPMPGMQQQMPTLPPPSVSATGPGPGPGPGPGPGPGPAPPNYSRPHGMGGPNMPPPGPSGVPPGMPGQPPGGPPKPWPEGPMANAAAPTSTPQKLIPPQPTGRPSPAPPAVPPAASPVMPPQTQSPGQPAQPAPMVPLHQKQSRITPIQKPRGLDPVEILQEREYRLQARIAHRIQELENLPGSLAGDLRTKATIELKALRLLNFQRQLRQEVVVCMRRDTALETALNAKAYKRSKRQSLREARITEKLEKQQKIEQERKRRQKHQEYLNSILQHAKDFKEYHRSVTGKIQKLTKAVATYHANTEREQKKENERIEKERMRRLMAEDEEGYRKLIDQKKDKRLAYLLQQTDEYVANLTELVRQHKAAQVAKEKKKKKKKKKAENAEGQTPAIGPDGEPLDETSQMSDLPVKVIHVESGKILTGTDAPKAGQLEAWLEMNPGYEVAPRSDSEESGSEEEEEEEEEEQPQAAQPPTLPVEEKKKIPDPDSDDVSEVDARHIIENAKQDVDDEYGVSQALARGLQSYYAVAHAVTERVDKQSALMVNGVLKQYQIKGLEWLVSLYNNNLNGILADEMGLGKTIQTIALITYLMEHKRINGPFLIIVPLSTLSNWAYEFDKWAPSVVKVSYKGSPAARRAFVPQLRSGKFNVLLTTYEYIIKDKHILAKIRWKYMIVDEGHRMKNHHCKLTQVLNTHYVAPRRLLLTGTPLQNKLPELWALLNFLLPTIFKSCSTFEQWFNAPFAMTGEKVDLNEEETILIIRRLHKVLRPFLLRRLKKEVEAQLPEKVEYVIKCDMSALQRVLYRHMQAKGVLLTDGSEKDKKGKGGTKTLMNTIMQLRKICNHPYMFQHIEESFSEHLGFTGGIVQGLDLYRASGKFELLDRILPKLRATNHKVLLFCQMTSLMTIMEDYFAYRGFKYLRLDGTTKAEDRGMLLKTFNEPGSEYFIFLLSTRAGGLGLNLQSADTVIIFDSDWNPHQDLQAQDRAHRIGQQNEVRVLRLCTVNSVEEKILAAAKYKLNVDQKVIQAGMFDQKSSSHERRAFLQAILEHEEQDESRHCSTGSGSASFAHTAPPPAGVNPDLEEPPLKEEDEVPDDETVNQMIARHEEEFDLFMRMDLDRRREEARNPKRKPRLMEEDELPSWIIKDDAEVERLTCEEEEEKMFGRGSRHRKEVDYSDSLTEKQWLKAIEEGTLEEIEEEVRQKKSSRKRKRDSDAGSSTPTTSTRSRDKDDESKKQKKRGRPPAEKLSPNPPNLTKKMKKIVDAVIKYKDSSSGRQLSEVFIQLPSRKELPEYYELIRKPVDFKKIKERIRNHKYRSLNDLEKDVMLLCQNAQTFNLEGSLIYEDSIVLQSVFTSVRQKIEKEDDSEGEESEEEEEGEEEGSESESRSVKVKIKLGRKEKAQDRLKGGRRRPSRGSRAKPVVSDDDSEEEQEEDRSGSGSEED
Protocol: 1250 cells per well in 60 µl medium were plated in flat bottom, poly-lysin coated 384-well plates (CellCarrier Ultra, Perkin Elmer). The next day, test compounds (10 µl of serial dilutions) and DMSO controls were diluted in DMEM medium such that the final DMSO content was <1% or were added using an ultrasound dispensing system. 4 wells were reserved for a background measurement. […] After aspirating the fixing solution, the cells were washed once with 25 µl PBS. 25 µl of blocking buffer (10% goat serum in PBS) was added and cells were incubated for 30 min, then washed once with PBS. Cells were stained with 20 µl of SMARCA2/4 primary antibody solution (Sigma #HPA029981 RRID:AB_10602406 1:1000 or Cell Signalling #52251 clone E9O6 RRID:AB_2799410 1:1000 in PBS with 10% FCS) for 2–4 h at room temperature. Cells were again washed once with PBS. […] The cell layer was then washed once with 25 µl PBS, the wells were filled with 25 µl PBS and the plates were sealed with an adhesive sheet. They were then imaged on the Opera Phoenix (mean intensity in the nucleus). Results were computed as percent of controls ((value of test compound − background)/(value of the negative control DMSO—background) multiplied by 100). EC50 values were computed using a 4-parametric logistic model.

[2] = system: NCI-H1568 cells; assay: Cell viability assay (CellTiter Glo) in NCI-H1568; type: cell-based, human; details: for IC50: NCI-H1568, (18h), CellTiter Glo, individual replicates, read-out: NCI-H1568 (18h) CTG
Protocol: 500–2000 cells were seeded in white, clear bottom 96-well plates (Corning or Perkin Elmer) in 180–200 µl medium per well. The next day, compounds were added using a digital dispenser and a T0 sample was measured for reference. […], and viability (luminescence) was measured using CellTiter Glo or CellTiter Glo 2.0 (Promega) according to manufacturer’s instructions after equilibrating cells and reagents at room temperature and 10–20 min incubation time while shaking.

[3] = target: T2, PBRM1BD5 (Homo sapiens, UniProt Q86U86); assay: TR-FRET ternary complex affinity and cooperativity, PBRM1; type: binding
T2 construct: GST (TEV site) (N); His6 (TEV site) (N, cleaved yes); made in house; host or cells: PBRM1^BD5: Escherichia coli BL21(DE3)
T2 sequence (Q86U86 645-766): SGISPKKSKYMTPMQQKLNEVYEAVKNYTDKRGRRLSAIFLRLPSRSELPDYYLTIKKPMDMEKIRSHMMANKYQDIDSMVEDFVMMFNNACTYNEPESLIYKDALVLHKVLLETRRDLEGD

[4] = target: T1, SMARCA4; assay: SMARCA4 capillary electrophoresis protein assay in RKO cells; type: cell-based; design: endogenous in cells; host or cells: RKO, HCT116, LU99, HCC-364, HCT-15, HCC4006, SK-N-AS
Protocol: 130,000–200,000 cells were seeded in 24-well plates and incubated until settled down or overnight. Compounds were dissolved in DMSO and added to cells in indicated concentrations using a digital dispenser following an optional media change. Cells were incubated for 4 or 18 h as indicated. For SMARCA2/4 half-life determination, 150,000 or 200,000 cells were seeded in 24-well plates. The next day, 50 µg/ml cycloheximide (Sigma) was added and cells were incubated for 1–24 h. For SMARCA2/4 re-synthesis measurements, 200,000 cells were seeded in 24-well plates. The next day, 100 nM compound 6 was added for 4 h to degrade SMARCA2/4, and a sample was taken as baseline for normalisation. To allow re-synthesis, a VHL binder (compound 32, 25 or 50 µM) was then added for 3 or 24 h. Medium was removed, cells were washed with PBS and lysed with 80 µl Lysis Buffer (MSD Tris Lysis Buffer (#R60TX-2) + Halt Inhibitor Cocktail (100x) + Benzonase 0.5 µL/ml). Samples were frozen at −80 °C and thawed at room temperature before use. Samples were transferred to a V-bottom plate and insoluble debris was pelleted by centrifugation for 5 min at maximum speed. The supernatant was transferred to a fresh plate. Master Mix and Ladder were prepared according to manufacturer’s instructions for 12–230 kDa Wes Separation Module, 8 × 25 capillary cartridges, Protein Simple #SM-W004 with Anti-Rabbit Detection Module for Wes, Peggy Sue or Sally Sue, Protein Simple #DM-001. 4.8 µl lysate were mixed with 1.2 µl Master Mix to achieve a protein concentration of ~0.5 µg/µl. Antibodies were diluted in Antibody Diluent II (SMARCA2 Sigma #HPA029981 RRID:AB_10602406 1:25–100, SMARCA4 Cell Signalling #49360 clone D1Q7F RRID:AB_2728743 1:15–120 or Abcam #ab110641 clone EPNCIR111A RRID:AB_10861578 1:60, GAPDH Abcam #ab9485 RRID:AB_307275 1:250). Wes plates were prepared and run according to manufacturer’s instructions. Proteins were quantified with accompanying Compass Software. SMARCA2/4 protein levels were normalised to GAPDH. […] Where applicable, curves were fitted using a 4-parametric logistic model.

[5] = 4h, read-out: RKO (4h) SMARCA4 DC50
[6] = 18h, read-out: RKO (18h) SMARCA4 DC50
[7] = NCI-H1568 ([…]), mean ± SD, read-out: EC50 cell proliferation (CellTiter Glo)
[8] = TR-FRET competition for PBRM1BD5, without VCB, mean ± SD, read-out: TR-FRET PBRM1BD EC50

Structure (SMILES): CN1CCN(c2nc(=O)c3c(Br)cccc3o2)CC1 [compound 15]
- DC50 [1, 5]: > 25000 nM
- DC50 [1, 6]: > 25000 nM
- EC50 [2, 7]: > 10000 nM
- IC50 [2]: > 10000 nM
- EC50 [3, 8]: > 10000 nM
- DC50 ([4]; RKO (4 h), mean ± SD): > 25000 nM
- DC50 ([4]; RKO (18 h), mean ± SD): > 25000 nM

Structure (SMILES): Cc1ncsc1-c1ccc([C@H](COCCN2CCC(c3ccc4c(c3)n(C3CCCC3)c3nc(=O)c5c(Br)cccc5n43)CC2)NC(=O)[C@@H]2C[C@@H](O)CN2C(=O)[C@@H](NC(=O)C2(N(C)C)CC2)C(C)(C)C)cc1 [compound 26]
- DC50 [1, 5]: 66.9 nM and 93.6 nM and 83.9 nM
- DC50 [1, 6]: 61.5 nM and 91.3 nM and 101 nM
- EC50 ([2]; Homo sapiens, NCI-H1568, […], read-out: EC50 cell proliferation (CellTiter Glo)): 33 ± 25 nM
- IC50 [2]: 52.4 nM and 57.1 nM and 12.2 nM
- EC50 [3, 8]: 22 ± 5 nM
- DC50 ([4]; RKO (4 h), mean ± SD): 81 ± 14 nM
- DC50 ([4]; RKO (18 h), mean ± SD): 83 ± 21 nM
- Dmax ([4]; RKO, RKO (4 h), mean ± SD): 61 ± 15%
- Dmax ([4]; RKO, RKO (18 h), mean ± SD): 82 ± 5%

Structure (SMILES): Cc1ncsc1-c1ccc(C(CCC(C)CCN2CCC(c3ccc4c(c3)n(C3CCCC3)c3nc(=O)c5c(Br)cccc5n43)CC2)NC(=O)C2CC(O)CN2C(=O)C(NC(=O)C2(F)CC2)C(C)(C)C)cc1 (stereo not drawn) [ACBI2]
- DC50 [1, 6]: 37.7 nM and 30.3 nM and 30.7 nM and 30.9 nM and 26.2 nM and 33.5 nM and 25.2 nM and 30.8 nM and 63.4 nM and 30 nM and 29.1 nM and 27.7 nM
- EC50 ([2]; Homo sapiens, NCI-H1568, assay not given, read-out: EC50): 7 nM
- EC50 ([2]; Homo sapiens, NCI-H1568, read-out: LogEC50 (viability) (converted)): 7.43 nM
- EC50 ([2]; Homo sapiens, NCI-H1568, values derived from curves in Extended Fig 4b, read-out: EC50 mean): 7.43 nM
- Bottom (% Viability, four-parameter fit) ([2]; NCI-H1568): 1.886%
- HillSlope (viability) ([2]; NCI-H1568): -1.08
- Top (% Viability, four-parameter fit) ([2]; NCI-H1568): 95.68%
- IC50 [2]: 6.58 nM and 10.7 nM and 3.99 nM and 10.8 nM and 11.1 nM and 3.71 nM
- % Viability ([2]; NCI-H1568, log10 conc -5 mol/l): -0.296% and -0.02611% and -0.1217% and 0.4768% and -0.2501%
- % Viability ([2]; NCI-H1568, log10 conc -5.30103 mol/l): -0.06113% and -0.2267%
- % Viability ([2]; NCI-H1568, log10 conc -5.50031 mol/l): 0.1326% and 0.2417% and 0.02451% and 0.1536% and 0.8908%
- % Viability ([2]; NCI-H1568, log10 conc -5.90309 mol/l): 0.4837%
- % Viability ([2]; NCI-H1568, log10 conc -6.50446 mol/l): 2.441% and 0.7903%
- % Viability ([2]; NCI-H1568, log10 conc -7.10735 mol/l): 8.308% and 6.732%
- % Viability ([2]; NCI-H1568, log10 conc -8.31158 mol/l): 56.5669% and 89.3041%
- % Viability ([2]; NCI-H1568, log10 conc -8.91364 mol/l): 76.9492% and 107.085%
- % Viability ([2]; NCI-H1568, log10 conc -9.5157 mol/l): 76.1437% and 99.3609%
- % Viability ([2]; NCI-H1568, log10 conc -10 mol/l): 102.65% and 94.5594% and 117.406% and 60.7547% and 106.867%
- % Viability ([2]; NCI-H1568, log10 conc -10.1175 mol/l): 83.2326% and 93.6592%
- % Viability ([2]; NCI-H1568, log10 conc -10.5003 mol/l): 109.307% and 95.7558% and 110.528% and 76.6212%
- EC50 [3]: 67 ± 9 nM
- DC50 ([4]; RKO (4 h), mean ± SD): > 25000 nM
- DC50 ([4]; RKO cells, time not stated at the place (Supplementary Data 2)): 32 nM
- Dmax ([4]; RKO, RKO (18 h), mean ± SD): 67 ± 8%
- Bottom (% protein remaining, four-parameter fit) ([4]; RKO, SM4): 39.28%
- Top (% protein remaining, four-parameter fit) ([4]; RKO, SM4): 143.4%
- % protein remaining ([4]; RKO, SM4, conc 9.54e-12 mol/l): 113.734% and 126.165%
- % protein remaining ([4]; RKO, SM4, conc 3.81e-11 mol/l): 121.614% and 148.911%
- % protein remaining ([4]; RKO, SM4, conc 1.53e-10 mol/l): 135.787% and 142.842%
- % protein remaining ([4]; RKO, SM4, conc 6.1e-10 mol/l): 143.182% and 145.479%
- % protein remaining ([4]; RKO, SM4, conc 2.44e-9 mol/l): 149.21% and 160.401%
- % protein remaining ([4]; RKO, SM4, conc 9.77e-9 mol/l): 171.8% and 162.178%
- % protein remaining ([4]; RKO, SM4, conc 3.91e-8 mol/l): 85.9345% and 100.013%
- % protein remaining ([4]; RKO, SM4, conc 1.56e-7 mol/l): 33.2702% and 37.8218%
- % protein remaining ([4]; RKO, SM4, conc 6.25e-7 mol/l): 30.6123% and 41.0571%
- % protein remaining ([4]; RKO, SM4, conc 2.5e-6 mol/l): 28.0108%
- % protein remaining ([4]; RKO, SM4, conc 1e-5 mol/l): 64.9119%

Structure (SMILES): Cc1ncsc1-c1ccc(CNC(=O)[C@@H]2C[C@@H](O)CN2C(=O)[C@@H](NC(=O)C2(F)CC2)C(C)(C)C)c(OCCN2CCC(c3ccc4c(c3)n(C3CCCC3)c3nc(=O)c5c(Br)cccc5n43)CC2)c1 [compound 20]
- DC50 [1, 5]: > 25000 nM
- DC50 [1, 6]: > 25000 nM
- EC50 [2, 7]: 74 ± 52 nM
- IC50 [2]: 80.9 nM and 35.3 nM and 140 nM
- EC50 [3, 8]: 38 ± 4 nM
- DC50 ([4]; RKO (4 h), mean ± SD): > 25000 nM
- DC50 ([4]; RKO (18 h), mean ± SD): > 25000 nM
